Source: patent publication US20250009743A1, “METHODS OF TREATING CANCERS USING STING AGONISTS” (Dana-Farber Cancer Institute, Inc., priority 2021, published 2025)

Legend:
DF101 PDX = assay: DF101 ovarian PDX in NSG mice; type: in vivo, human
Description: For the PDX in vivo experiments, about 3×10^6 PDX tumor cells were mixed with 3×10^6 human bone marrow mononuclear cells in serum-free DMEM/F12 medium containing 50% Matrigel (CAT #70001, […] Technology) and intraperitoneally transplanted into NOD/SCID IL2Rgnull mice (NSG, The Jackson Laboratory). About three weeks after injection, PDX-bearing mice were equivalently divided into 4 groups according to the luminescent intensity and treated with vehicle control, olaparib, MSA-2 and olaparib in combination with MSA-2 using the same dosing and schedule that have been described above. Ascites was harvested for analysis after three weeks' treatment.
Tumors were chopped and digested in collagenase buffer as described previously (Ding et al., 2018 Cell Rep 25, 2972-2980.e2975). Single cell suspensions of tumor and ascites were obtained by filtering through 70 um strainers and treated with 1× eBioscience RBC lysis buffer (Thermo Fisher) before staining. Single cells suspensions were incubated with LIVE/DEAD Fixable Aqua Dead Cell Stain (Life Technologies, Cat #L34965) for 30 min and then blocked with anti-CD16/32 (Biolegend, clone 93) for 20 min on ice. Samples were then incubated with appropriate antibodies for 30 min on ice. Foxp3 staining buffer set (eBioscience, Cat #00-5523-00) was applied for intracellular markers staining. For the intracellular cytokine analysis, cells were stimulated with Leukocyte Activation Cocktail (BD Biosciences, Cat #550583) at 37° C. for 4-6 hours prior to FACS staining. […] Flow cytometry was performed on an LSRII (BD Biosciences) or Fortessa HTS (BD Biosciences) at DFCI Flow Cytometry Core, and all the data were analyzed using FlowJo software.

PE tumors = assay: Flow cytometry of immune cells in PE tumors and tumor-drainage lymph nodes; type: in vivo, mouse; conditions: single-agent treatment; FIG. 30B
Description: To obtain single-cell suspension from tumor mass, tumors were excised, minced and dissociated in collagenase buffer (DMEM supplemented with 5% FBS, 10 mM HEPES [Gibco), 100 μg/mL penicillin-streptomycin, 20 μg/mL DNase I [StemCell] and 1× collagenase/hyaluronidase [StemCell]) at 37° C. for 45 min. Tumor-draining lymph nodes were isolated from tumor-bearing mice and were mashed through 70 μm strainer using plunger of a syringe to obtain single-cell suspension.
For FACS staining, tissue cells were first stained with LIVE/DEAD Fixable Aqua Dead Cell Stain (Thermo Fisher) for 30 min on ice, followed by blocking with anti-CD16/32 (BioLegend) for 20 minutes on ice. Afterwards, cells were incubated with antibodies targeting surface biomarkers in FACS buffer for 30 minutes on ice.

[1] = test system: STAT3 phosphorylation in PBM tumor cells; assay: p-STAT3 (Y705) in PBM tumor cells (flow cytometry, Western blot); type: cell-based, mouse; conditions: PARPi-naïve PBM cells, 24 hours; FIGS. 19D and 20B
Description: Analysis of p-STAT3 and γ-H2AX (p-HA2X-Ser139) was performed according to a two-step protocol for intracellular phosphorylated signaling proteins (Thermo Fisher). Briefly, cells were incubated with LIVE/DEAD Fixable Aqua Dead Cell Stain for 30 min. After washing, cells were suspended in 100 μl PBS and then fixed by adding an equal volume of IC Fixation Buffer (CAT #00-822-49, Thermo Fisher) directly to cells and incubated at room temperature for 20 min followed by fixing with ice-cold 90% methanol in PBS for 30 min. The fixed cells were blocked and stained with p-STAT3 or γ-H2AX antibodies for flow cytometry analysis as described above.
Tumor cells were harvested and lysed with ice-cold RIPA buffer supplemented with protease phosphatase inhibitor cocktail (Thermo Fisher). Protein concentration was determined using a Pierce BCA Protein Assay Kit (Thermo Fisher). About 50 μg protein extracts were loaded and separated by SDS-PAGE, and then transferred to polyvinylidene fluoride (PVDF) membranes. After blocking with 5% non-fat milk (Bio-Rad) in PBST (PBS plus 0.2% Tween 20) at room temperature for 1 hr, membranes were incubated with primary antibodies overnight at 4° C.

[2] = test system: BP-sgControl and BP-sgSTING cells; assay: CellTiter-Glo cell viability of BP-sgControl and BP-sgSTING cells; type: cell-based, mouse; conditions: effect of loss of tumor cell-intrinsic STING; three days; FIG. 11B
Description: Tumor cells were seeded in 96-well plates at a density of 5000 cells per well and allowed to adhere overnight. Cells were then treated for 72 hours with indicated drugs at the concentrations shown. Cell viability was measured using CellTiter-Glo® 2.0 Cell Viability Assay (Promega, #G9242) according to the manufacturer's instruction. Growth inhibition was calculated by comparing the […] of drug-treated wells to that of untreated controls 1 set at 100%. Dose response curves and IC50 values were generated using a non-linear regression model in GraphPad Prism 8.

SMILES	tumor response compared to DF86 PDX tumors (DF101 PDX; FIG. 26)	TAM phenotype in ascites (DF101 PDX; FIG. 26C-E)	proportion of TAMs in ascites (DF101 PDX; FIG. 26C-E)	tumor immune microenvironment of large PE tumors (PE tumors)	phosphorylation of STAT3 [1]	sensitivity to olaparib in vitro (cell viability) [2]
COc1cc2cc(C(=O)CCC(=O)O)sc2cc1OC [MSA-2]	less responsive	reprogramed M2-like TAMs to M1-like	greatly decreased	did not significantly affect	–	–
O=C(c1cc(Cc2n[nH]c(=O)c3ccccc23)ccc1F)N1CCN(C(=O)C2CC2)CC1 [olaparib]	–	–	–	–	increased phosphorylation levels of STAT3 in cultured PBM cells in a dose-dependent manner	did not affect sensitivity
